pIC50: −log10 of the molar value.
Tests used:
Experiment in all cases: cells
[1] = test system: NCI-H446; assay type: functional, cell-based, Homo sapiens; settings: Homo sapiens, NCI-H446;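 further: growth inhibition of NCI-H446 cells determined by a cell viability assay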
Description: SANGER: Inhibition of human NCI-H446 cell growth in a cell viability assay.

[2] = test system: MLMA; assay type: functional, cell-based, Homo sapiens; settings: Homo sapiens, MLMA;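 further: growth inhibition of MLMA cells (human), determined through a cell viability readout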
Description: SANGER: Inhibition of human MLMA cell growth in a cell viability assay.

[3] = test system: MPP-89; assay type: functional, cell-based, Homo sapiens; settings: Homo sapiens, MPP-89;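 further: growth inhibition of human MPP-89 cells, read out with a cell viability assay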
Description: SANGER: Inhibition of human MPP-89 cell growth in a cell viability assay.

[4] = test system: NB5; assay type: functional, cell-based, Homo sapiens; settings: Homo sapiens, NB5;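 further: growth inhibition of NB5 cells, read out as cell viability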
Description: SANGER: Inhibition of human NB5 cell growth in a cell viability assay.

[5] = test system: NCI-H1838; assay type: functional, cell-based, Homo sapiens; settings: Homo sapiens, NCI-H1838;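 further: growth inhibition of NCI-H1838 cells, determined with a cell viability readout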
Description: SANGER: Inhibition of human NCI-H1838 cell growth in a cell viability assay.

[6] = test system: K562; assay type: functional, cell-based, Homo sapiens; settings: Homo sapiens, K562
Description: SANGER: Inhibition of human K-562 cell growth in a cell viability assay.

[7] = test system: OS-RC-2; assay type: functional, cell-based, Homo sapiens; settings: Homo sapiens, OS-RC-2;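 further: growth inhibition of human OS-RC-2 cells, measured by a cell viability assay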
Description: SANGER: Inhibition of human OS-RC-2 cell growth in a cell viability assay.

[8] = test system: GR-ST; assay type: functional, cell-based, Homo sapiens; settings: Homo sapiens, GR-ST
Description: SANGER: Inhibition of human GR-ST cell growth in a cell viability assay.

[9] = test system: ES7; assay type: functional, cell-based, Homo sapiens; settings: Homo sapiens, ES7;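 further: growth inhibition of cultured human ES7 cells, read out as cell viability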
Description: SANGER: Inhibition of human ES7 cell growth in a cell viability assay.

[10] = test system: NH-12; assay type: functional, cell-based, Homo sapiens; settings: Homo sapiens, NH-12;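 further: growth inhibition of NH-12 cells, read out with a cell viability assay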
Description: SANGER: Inhibition of human NH-12 cell growth in a cell viability assay.

[11] = test system: NCI-H209; assay type: functional, cell-based, Homo sapiens; settings: Homo sapiens, NCI-H209;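 further: growth inhibition of human NCI-H209 cells, measured by a cell viability assay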
Description: SANGER: Inhibition of human NCI-H209 cell growth in a cell viability assay.

[12] = test system: KNS-42; assay type: functional, cell-based; settings: Homo sapiens;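 further: growth inhibition of KNS-42 cells, read out with a cell viability assay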
Description: SANGER: Inhibition of human KNS-42 cell growth in a cell viability assay.

[13] = test system: HT-144; assay type: functional, cell-based, Homo sapiens; settings: Homo sapiens, HT-144
Description: SANGER: Inhibition of human HT-144 cell growth in a cell viability assay.

[14] = test system: Lu-65; assay type: functional, cell-based, Homo sapiens; settings: Homo sapiens, Lu-65;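 further: growth inhibition of Lu-65 cancer cells, read out by a cell viability assay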
Description: SANGER: Inhibition of human LU-65 cell growth in a cell viability assay.

[15] = test system: HH; assay type: functional, cell-based, Homo sapiens; settings: Homo sapiens, HH
Description: SANGER: Inhibition of human HH cell growth in a cell viability assay.

[16] = test system: SK-MEL-2; assay type: functional, cell-based, Homo sapiens; settings: Homo sapiens, SK-MEL-2;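 further: growth inhibition of human SK-MEL-2 cells measured with a cell viability assay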
Description: SANGER: Inhibition of human SK-MEL-2 cell growth in a cell viability assay.

[17] = test system: EW-13; assay type: functional, cell-based, Homo sapiens; settings: Homo sapiens, EW-13; read-out: IC50;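 further: growth inhibition of EW-13 cells, read out with a cell viability assay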
Description: SANGER: Inhibition of human EW-13 cell growth in a cell viability assay.

[18] = test system: CGTH-W-1; assay type: functional, cell-based, Homo sapiens; settings: Homo sapiens, CGTH-W-1;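 further: growth inhibition of human CGTH-W-1 cells measured by cell viability assay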
Description: SANGER: Inhibition of human CGTH-W-1 cell growth in a cell viability assay.

[19] = test system: RCC10RGB; assay type: functional, cell-based, Homo sapiens; settings: Homo sapiens, RCC10RGB;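 further: growth inhibition of human RCC10RGB cells, read out by a cell viability assay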
Description: SANGER: Inhibition of human RCC10RGB cell growth in a cell viability assay.

[20] = test system: COLO-800; assay type: functional, cell-based, Homo sapiens; settings: Homo sapiens, COLO-800;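 further: growth inhibition of COLO-800 cells, read out with a cell viability assay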
Description: SANGER: Inhibition of human COLO-800 cell growth in a cell viability assay.

[21] = test system: KM-H2; assay type: functional, cell-based, Homo sapiens; settings: Homo sapiens, KM-H2;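 further: growth inhibition of KM-H2 cells, read out by a cell viability assay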
Description: SANGER: Inhibition of human KM-H2 cell growth in a cell viability assay.

[22] = test system: GI-ME-N; assay type: functional, cell-based, Homo sapiens; settings: Homo sapiens, GI-ME-N;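 further: growth inhibition of human GI-ME-N cells, read out with a cell viability assay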
Description: SANGER: Inhibition of human GI-ME-N cell growth in a cell viability assay.

[23] = test system: MHH-NB-11; assay type: functional, cell-based, Homo sapiens; settings: Homo sapiens, MHH-NB-11;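 further: growth inhibition of human MHH-NB-11 cells, read out by a cell viability assay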
Description: SANGER: Inhibition of human MHH-NB-11 cell growth in a cell viability assay.

[24] = test system: GOTO; assay type: functional, cell-based, Homo sapiens; settings: Homo sapiens, GOTO;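 further: growth inhibition of GOTO cells, read out by a cell viability assay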
Description: SANGER: Inhibition of human GOTO cell growth in a cell viability assay.

[25] = test system: SF-268; assay type: functional, cell-based, Homo sapiens; settings: Homo sapiens, SF-268;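 further: growth inhibition of SF-268 cells determined with a cell viability assay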
Description: SANGER: Inhibition of human SF268 cell growth in a cell viability assay.

[26] = test system: COLO-824; assay type: functional, cell-based, Homo sapiens; settings: Homo sapiens, COLO-824
Description: SANGER: Inhibition of human COLO-824 cell growth in a cell viability assay.

[27] = test system: NCI-H747; assay type: functional, cell-based, Homo sapiens; settings: Homo sapiens, NCI-H747;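 further: growth inhibition of human NCI-H747 cells, read out by a cell viability assay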
Description: SANGER: Inhibition of human NCI-H747 cell growth in a cell viability assay.

[28] = test system: Becker; assay type: functional, cell-based, Homo sapiens; settings: Homo sapiens, Becker;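 further: growth inhibition of Becker cells, read out with a cell viability assay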
Description: SANGER: Inhibition of human Becker cell growth in a cell viability assay.

[29] = test system: SW872; assay type: functional, cell-based, Homo sapiens; settings: Homo sapiens, SW872;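 further: growth inhibition of SW872 cells, read out by a viability assay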
Description: SANGER: Inhibition of human SW872 cell growth in a cell viability assay.

[30] = test system: EW-11; assay type: functional, cell-based, Homo sapiens; settings: Homo sapiens, EW-11;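 further: growth inhibition of human EW-11 cells, measured with a cell viability assay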
Description: SANGER: Inhibition of human EW-11 cell growth in a cell viability assay.

[31] = test system: SNU1; assay type: functional, cell-based, Homo sapiens; settings: Homo sapiens, SNU1;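 further: growth inhibition of human NCI-SNU-1 cells, measured with a cell viability assay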
Description: SANGER: Inhibition of human NCI-SNU-1 cell growth in a cell viability assay.

[32] = test system: NCI-H23; assay type: functional, cell-based, Homo sapiens; settings: Homo sapiens, NCI-H23;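 further: cell viability assay measuring growth inhibition of NCI-H23 cells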
Description: SANGER: Inhibition of human NCI-H23 cell growth in a cell viability assay.

[33] = test system: HCC2218; assay type: functional, cell-based, Homo sapiens; settings: Homo sapiens, HCC2218;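 further: cell viability assay read-out, with IC50 given as the concentration that inhibits growth of the cell line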
Description: SANGER: Inhibition of human HCC2218 cell growth in a cell viability assay.

[34] = test system: LXF-289 cell line; assay type: functional, cell-based; settings: Homo sapiens
Description: SANGER: Inhibition of human LXF-289 cell growth in a cell viability assay.

[35] = test system: NCI-H1304; assay type: functional, cell-based, Homo sapiens; settings: Homo sapiens, NCI-H1304;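 further: growth inhibition of the cancer cell line, measured in a cell viability assay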
Description: SANGER: Inhibition of human NCI-H1304 cell growth in a cell viability assay.

[36] = test system: COR-L88; assay type: functional, cell-based, Homo sapiens; settings: Homo sapiens, COR-L88;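 further: growth inhibition of COR-L88 cells, read out with a cell viability assay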
Description: SANGER: Inhibition of human COR-L88 cell growth in a cell viability assay.

[37] = test system: LB2241-RCC; assay type: functional, cell-based, Homo sapiens; settings: Homo sapiens, LB2241-RCC;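 further: cell viability assay measuring how strongly the cultured human renal carcinoma line is prevented from growing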
Description: SANGER: Inhibition of human LB2241-RCC cell growth in a cell viability assay.

[38] = test system: SBC-1; assay type: functional, cell-based, Homo sapiens; settings: Homo sapiens, SBC-1;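 further: cell viability assay measuring growth inhibition of the SBC-1 cell line, IC50 being the concentration that halves growth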
Description: SANGER: Inhibition of human SBC-1 cell growth in a cell viability assay.

[39] = test system: NCI-N87; assay type: functional, cell-based; settings: Homo sapiens;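 further: growth inhibition of human NCI-N87 cells, read out with a cell viability assay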
Description: SANGER: Inhibition of human NCI-N87 cell growth in a cell viability assay.

[40] = test system: HCE-T; assay type: functional, cell-based, Homo sapiens; settings: Homo sapiens, HCE-T;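 further: cell viability assay read-out, reporting inhibition of HCE-T cell growth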
Description: SANGER: Inhibition of human HCE-T cell growth in a cell viability assay.

[41] = test system: KP-N-YS; assay type: functional, cell-based, Homo sapiens; settings: Homo sapiens, KP-N-YS;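 further: cell viability assay measuring inhibition of cell line growth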
Description: SANGER: Inhibition of human KP-N-YS cell growth in a cell viability assay.

[42] = test system: ALL-PO; assay type: functional, cell-based, Homo sapiens; settings: Homo sapiens, ALL-PO;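 further: growth inhibition of ALL-PO cells, read out by a cell viability assay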
Description: SANGER: Inhibition of human ALL-PO cell growth in a cell viability assay.

[43] = test system: CW-2; assay type: functional, cell-based, Homo sapiens; settings: Homo sapiens, CW-2;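 further: growth inhibition of CW-2 cells, read out by a cell viability assay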
Description: SANGER: Inhibition of human CW-2 cell growth in a cell viability assay.

[44] = test system: SNU-5; assay type: functional, cell-based, Homo sapiens; settings: Homo sapiens, SNU-5;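 further: cell viability readout used to measure growth inhibition in human NCI-SNU-5 cells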
Description: SANGER: Inhibition of human NCI-SNU-5 cell growth in a cell viability assay.

[45] = test system: MSTO-211H; assay type: functional, cell-based, Homo sapiens; settings: Homo sapiens, MSTO-211H
Description: SANGER: Inhibition of human MSTO-211H cell growth in a cell viability assay.

[46] = test system: OMC-1; assay type: functional, cell-based, Homo sapiens; settings: Homo sapiens, OMC-1;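 further: growth inhibition of the OMC-1 cell line, measured by a cell viability assay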
Description: SANGER: Inhibition of human OMC-1 cell growth in a cell viability assay.

[47] = test system: HD-MY-Z; assay type: functional, cell-based, Homo sapiens; settings: Homo sapiens, HD-MY-Z;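 further: growth inhibition of HD-MY-Z cells, read out with a cell viability assay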
Description: SANGER: Inhibition of human HD-MY-Z cell growth in a cell viability assay.

[48] = test system: MMAC-SF; assay type: functional, cell-based; settings: Homo sapiens;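 further: growth inhibition of human MMAC-SF cells, read out with a cell viability assay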
Description: SANGER: Inhibition of human MMAC-SF cell growth in a cell viability assay.

[49] = test system: DB; assay type: functional, cell-based, Homo sapiens; settings: Homo sapiens, DB
Description: SANGER: Inhibition of human DB cell growth in a cell viability assay.

[50] = test system: SJSA-1; assay type: functional, cell-based, Homo sapiens; settings: Homo sapiens, SJSA-1;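 further: growth inhibition of human SJSA-1 cells, read out through a cell viability measurement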
Description: SANGER: Inhibition of human SJSA-1 cell growth in a cell viability assay.

Measured: pIC50

Cc1ccc(-n2nc(C(C)(C)C)cc2NC(=O)Nc2ccc(OCCN3CCOCC3)c3ccccc23)cc1 [DORAMAPIMOD]
5.19: [24]
5.04: [31]
5.07: [3]
< 5.00: all other assays above

CN(NC(=O)CC(=O)NN(C)C(=S)c1ccccc1)C(=S)c1ccccc1 [ELESCLOMOL]
6.74: [5]
7.89: [13] | [25]
8.31: [30] | [31]
8.23: [47]
7.32: [7]
7.07: [48]
7.70: [17]
6.85: [49]
7.11: [46]
7.16: [23]
8.04: [3]
7.85: [34]
8.44: [9]
7.05: [1]
7.45: [38]
7.91: [32] | [50]
7.51: [4]
7.87: [2]
7.24: [27]
7.10: [41]
7.96: [18]
7.73: [24]
7.14: [16] | [26]
7.65: [28]
7.52: [20]
8.35: [40]
6.87: [10]
7.25: [37]
< 6.70: all other assays above

Source: ChEMBL document CHEMBL1201861, “Genomics of Drug Sensitity in Cancer screening data, Wellcome Trust Sanger Institute”
